From ChEMBL document CHEMBL5653615 (J Biol Chem, 2013)
Blank lines part the entries; values can stand above or below the compound they belong to.

Legend:
[1] = biological target: Mitogen-activated protein kinase 11 (Homo sapiens) (UniProt Q15759); assay: Inhibition of human MAPK11 at 18.6 nM by HotSpot assay relative to control
[2] = biological target: Calcium/calmodulin-dependent protein kinase type II subunit alpha (Homo sapiens) (UniProt Q9UQM7); assay: Inhibition of human CAMK2a at 18.6 nM by HotSpot assay relative to control
[3] = biological target: Serine/threonine-protein kinase Chk2 (Homo sapiens) (UniProt O96017); assay: Inhibition of human CHK2 at 18.6 nM by HotSpot assay relative to control
Chain of Serine/threonine-protein kinase Chk2 (Homo sapiens) (O96017 whole entry): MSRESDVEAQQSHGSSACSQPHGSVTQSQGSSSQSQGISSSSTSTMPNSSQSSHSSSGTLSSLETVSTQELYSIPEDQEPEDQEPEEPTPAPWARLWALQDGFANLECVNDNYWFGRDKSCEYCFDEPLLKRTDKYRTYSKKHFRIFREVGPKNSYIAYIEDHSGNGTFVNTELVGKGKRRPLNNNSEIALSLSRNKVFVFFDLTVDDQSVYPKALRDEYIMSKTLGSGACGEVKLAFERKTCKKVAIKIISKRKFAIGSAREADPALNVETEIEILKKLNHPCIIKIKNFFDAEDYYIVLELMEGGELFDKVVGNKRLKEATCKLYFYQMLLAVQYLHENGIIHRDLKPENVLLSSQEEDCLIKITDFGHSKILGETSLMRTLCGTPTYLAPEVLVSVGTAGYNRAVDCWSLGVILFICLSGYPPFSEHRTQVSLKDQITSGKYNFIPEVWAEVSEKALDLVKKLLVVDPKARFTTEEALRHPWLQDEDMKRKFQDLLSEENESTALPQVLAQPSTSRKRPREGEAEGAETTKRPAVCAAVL

[4] = biological target: T1, Serine/threonine-protein kinase Nek2 (Homo sapiens) (UniProt P51955); assay: Inhibition of human NEK2 at 18.6 nM by HotSpot assay relative to control
T1 sequence (whole entry): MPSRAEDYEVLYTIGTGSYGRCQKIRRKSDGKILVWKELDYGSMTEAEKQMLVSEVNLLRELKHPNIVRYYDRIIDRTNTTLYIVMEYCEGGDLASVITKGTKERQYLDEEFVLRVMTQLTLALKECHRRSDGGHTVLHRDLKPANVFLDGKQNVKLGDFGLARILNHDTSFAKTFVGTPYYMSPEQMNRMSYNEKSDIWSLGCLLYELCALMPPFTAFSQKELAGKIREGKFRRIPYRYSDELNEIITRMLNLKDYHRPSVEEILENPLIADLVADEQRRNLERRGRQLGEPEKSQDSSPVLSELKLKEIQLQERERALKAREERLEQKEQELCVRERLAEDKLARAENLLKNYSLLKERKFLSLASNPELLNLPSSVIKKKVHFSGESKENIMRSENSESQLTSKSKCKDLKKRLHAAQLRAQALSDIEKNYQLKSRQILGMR

[5] = biological target: Insulin-like growth factor 1 receptor (Homo sapiens, UniProt P08069); settings: dose 18.6 nM
Description: Inhibition of human IGF1R at 18.6 nM by HotSpot assay relative to control

[6] = biological target: Serine/threonine-protein kinase PAK 6 (Homo sapiens) (UniProt Q9NQU5); assay: Inhibition of human PAK6 at 18.6 nM by HotSpot assay relative to control
[7] = biological target: Serine/threonine-protein kinase pim-3 (Homo sapiens) (UniProt Q86V86); assay: Inhibition of human PIM3 at 18.6 nM by HotSpot assay relative to control
[8] = biological target: Calcium/calmodulin-dependent protein kinase type 1D (Homo sapiens) (UniProt Q8IU85); assay: Inhibition of human CAMK1d at 18.6 nM by HotSpot assay relative to control
[9] = biological target: Ephrin type-A receptor 5 (Homo sapiens) (UniProt P54756); assay: Inhibition of human EPHA5 at 18.6 nM by HotSpot assay relative to control
[10] = biological target: Vascular endothelial growth factor receptor 1 (Homo sapiens) (UniProt P17948); assay: Inhibition of human FLT1 at 18.6 nM by HotSpot assay relative to control
[11] = biological target: SRSF protein kinase 3 (Homo sapiens) (UniProt Q9UPE1); assay: Inhibition of human STK23 at 18.6 nM by HotSpot assay relative to control
[12] = biological target: Serine/threonine-protein kinase 25 (Homo sapiens) (UniProt O00506); assay: Inhibition of human YSK1 at 18.6 nM by HotSpot assay relative to control
Chain of Serine/threonine-protein kinase 25 (Homo sapiens) (O00506 whole entry, looked up): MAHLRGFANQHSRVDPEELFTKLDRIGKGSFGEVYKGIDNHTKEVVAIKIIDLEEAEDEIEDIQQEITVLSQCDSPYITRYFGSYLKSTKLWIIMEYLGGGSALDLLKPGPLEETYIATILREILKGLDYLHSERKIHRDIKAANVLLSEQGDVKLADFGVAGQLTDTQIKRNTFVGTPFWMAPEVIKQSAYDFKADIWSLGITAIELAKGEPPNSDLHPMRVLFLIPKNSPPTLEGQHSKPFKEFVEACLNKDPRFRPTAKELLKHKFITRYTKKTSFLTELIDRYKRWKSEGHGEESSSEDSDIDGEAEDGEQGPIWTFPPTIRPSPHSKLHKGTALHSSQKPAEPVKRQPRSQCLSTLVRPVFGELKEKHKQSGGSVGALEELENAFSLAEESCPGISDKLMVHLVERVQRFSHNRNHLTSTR

[13] = biological target: CDK9/cyclin T1 (Homo sapiens) (UniProt O60563+P50750); assay: Inhibition of human CDK9/cyclin T1 at 18.6 nM by HotSpot assay relative to control; format: protein-complex assay
[14] = biological target: Calcium/calmodulin-dependent protein kinase type 1G (Homo sapiens) (UniProt Q96NX5); assay: Inhibition of human CAMK1g at 18.6 nM by HotSpot assay relative to control
Chain of Calcium/calmodulin-dependent protein kinase type 1G (Homo sapiens) (Q96NX5 whole entry): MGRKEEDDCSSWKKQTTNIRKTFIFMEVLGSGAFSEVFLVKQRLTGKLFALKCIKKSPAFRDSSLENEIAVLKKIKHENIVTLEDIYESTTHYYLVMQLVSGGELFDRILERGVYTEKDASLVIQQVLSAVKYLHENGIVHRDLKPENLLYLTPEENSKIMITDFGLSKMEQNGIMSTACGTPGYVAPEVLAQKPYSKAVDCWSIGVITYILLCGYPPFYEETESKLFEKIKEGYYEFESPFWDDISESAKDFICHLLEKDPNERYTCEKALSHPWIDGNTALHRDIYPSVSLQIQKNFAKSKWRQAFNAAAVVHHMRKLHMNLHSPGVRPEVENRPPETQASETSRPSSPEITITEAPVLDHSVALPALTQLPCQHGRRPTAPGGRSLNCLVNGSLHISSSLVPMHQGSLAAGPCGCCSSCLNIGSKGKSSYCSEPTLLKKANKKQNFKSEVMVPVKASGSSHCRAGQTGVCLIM

[15] = biological target: T2, Dual specificity mitogen-activated protein kinase kinase 6 (Homo sapiens) (UniProt P52564); assay: Inhibition of human MKK6 at 1.82 nM by HotSpot assay relative to control
T2 sequence (whole entry): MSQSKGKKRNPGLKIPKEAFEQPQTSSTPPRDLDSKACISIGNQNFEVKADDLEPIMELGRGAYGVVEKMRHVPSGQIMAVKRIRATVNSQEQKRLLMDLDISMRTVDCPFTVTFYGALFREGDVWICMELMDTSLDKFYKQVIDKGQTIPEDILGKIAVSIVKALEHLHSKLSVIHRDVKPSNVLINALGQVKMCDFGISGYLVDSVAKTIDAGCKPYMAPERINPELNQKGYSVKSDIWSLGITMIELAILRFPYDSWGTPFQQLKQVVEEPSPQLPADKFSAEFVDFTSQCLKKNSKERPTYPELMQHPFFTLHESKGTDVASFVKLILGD

[16] = biological target: Tyrosine-protein kinase Fgr (Homo sapiens) (UniProt P09769); assay: Inhibition of human FGR at 1.82 nM by HotSpot assay relative to control
[17] = biological target: Serine/threonine-protein kinase WNK2 (Homo sapiens) (UniProt Q9Y3S1); assay: Inhibition of human WNK2 at 1.82 nM by HotSpot assay relative to control
Chain of Serine/threonine-protein kinase WNK2 (Homo sapiens) (Q9Y3S1 whole entry): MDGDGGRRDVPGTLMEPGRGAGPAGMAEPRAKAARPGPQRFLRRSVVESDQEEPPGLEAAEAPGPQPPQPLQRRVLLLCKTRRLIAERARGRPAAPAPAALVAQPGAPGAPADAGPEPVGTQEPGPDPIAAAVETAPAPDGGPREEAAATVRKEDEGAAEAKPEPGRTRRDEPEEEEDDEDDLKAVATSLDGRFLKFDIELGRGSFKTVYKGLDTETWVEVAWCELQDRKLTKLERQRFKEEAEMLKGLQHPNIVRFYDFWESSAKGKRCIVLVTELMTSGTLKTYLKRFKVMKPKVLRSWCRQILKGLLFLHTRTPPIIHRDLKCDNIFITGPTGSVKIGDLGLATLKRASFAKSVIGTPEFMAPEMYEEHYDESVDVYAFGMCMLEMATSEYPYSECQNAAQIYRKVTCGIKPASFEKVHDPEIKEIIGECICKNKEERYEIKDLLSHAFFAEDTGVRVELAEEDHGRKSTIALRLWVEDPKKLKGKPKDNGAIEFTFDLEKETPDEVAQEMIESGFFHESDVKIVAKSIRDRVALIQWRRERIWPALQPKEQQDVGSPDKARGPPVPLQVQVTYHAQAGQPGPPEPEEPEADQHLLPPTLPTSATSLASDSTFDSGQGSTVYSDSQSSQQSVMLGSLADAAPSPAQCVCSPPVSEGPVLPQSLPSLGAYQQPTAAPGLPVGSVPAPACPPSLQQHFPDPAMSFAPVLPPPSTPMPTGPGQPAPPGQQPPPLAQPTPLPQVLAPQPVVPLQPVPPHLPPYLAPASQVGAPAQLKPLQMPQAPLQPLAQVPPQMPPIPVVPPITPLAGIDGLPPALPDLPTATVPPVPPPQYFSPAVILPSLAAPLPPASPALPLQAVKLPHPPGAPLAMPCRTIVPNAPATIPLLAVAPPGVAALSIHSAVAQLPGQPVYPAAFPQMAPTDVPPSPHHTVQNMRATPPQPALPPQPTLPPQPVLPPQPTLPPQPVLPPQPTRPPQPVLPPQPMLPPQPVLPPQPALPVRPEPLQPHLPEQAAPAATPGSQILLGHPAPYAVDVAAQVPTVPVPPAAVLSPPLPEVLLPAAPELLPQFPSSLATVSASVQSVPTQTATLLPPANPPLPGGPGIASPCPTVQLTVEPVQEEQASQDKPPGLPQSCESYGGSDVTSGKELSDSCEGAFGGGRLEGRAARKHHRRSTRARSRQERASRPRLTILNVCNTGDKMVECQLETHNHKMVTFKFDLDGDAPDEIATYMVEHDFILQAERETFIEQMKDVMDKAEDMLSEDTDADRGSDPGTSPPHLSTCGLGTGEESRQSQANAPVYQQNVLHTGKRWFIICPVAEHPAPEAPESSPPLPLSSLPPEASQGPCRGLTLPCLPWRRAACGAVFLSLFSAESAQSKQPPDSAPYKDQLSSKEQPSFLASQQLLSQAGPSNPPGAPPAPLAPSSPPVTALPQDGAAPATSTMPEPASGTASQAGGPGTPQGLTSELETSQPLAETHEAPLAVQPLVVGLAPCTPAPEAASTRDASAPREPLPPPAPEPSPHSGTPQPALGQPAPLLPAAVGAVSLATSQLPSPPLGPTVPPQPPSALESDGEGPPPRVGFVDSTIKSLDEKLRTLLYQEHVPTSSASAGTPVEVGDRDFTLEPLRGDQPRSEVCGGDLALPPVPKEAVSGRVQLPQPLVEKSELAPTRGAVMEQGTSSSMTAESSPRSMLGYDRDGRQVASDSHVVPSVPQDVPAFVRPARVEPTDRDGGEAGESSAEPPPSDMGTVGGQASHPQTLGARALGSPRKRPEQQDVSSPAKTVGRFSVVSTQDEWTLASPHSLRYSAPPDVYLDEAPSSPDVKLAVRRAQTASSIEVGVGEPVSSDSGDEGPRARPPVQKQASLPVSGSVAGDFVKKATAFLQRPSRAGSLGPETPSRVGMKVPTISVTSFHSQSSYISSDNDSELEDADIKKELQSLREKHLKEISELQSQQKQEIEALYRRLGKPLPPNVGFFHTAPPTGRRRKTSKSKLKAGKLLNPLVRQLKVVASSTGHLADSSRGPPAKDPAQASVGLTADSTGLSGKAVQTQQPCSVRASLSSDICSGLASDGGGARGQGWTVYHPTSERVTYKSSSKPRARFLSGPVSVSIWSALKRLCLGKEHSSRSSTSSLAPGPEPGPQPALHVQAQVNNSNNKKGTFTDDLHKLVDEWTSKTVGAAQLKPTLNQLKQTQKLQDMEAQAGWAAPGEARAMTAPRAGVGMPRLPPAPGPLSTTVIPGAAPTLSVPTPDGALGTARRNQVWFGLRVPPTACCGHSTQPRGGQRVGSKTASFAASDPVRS

[18] = biological target: T3, Dual specificity tyrosine-phosphorylation-regulated kinase 3 (Homo sapiens) (UniProt O43781); assay: Inhibition of human DYRK3 at 1.82 nM by HotSpot assay relative to control
T3 sequence (whole entry): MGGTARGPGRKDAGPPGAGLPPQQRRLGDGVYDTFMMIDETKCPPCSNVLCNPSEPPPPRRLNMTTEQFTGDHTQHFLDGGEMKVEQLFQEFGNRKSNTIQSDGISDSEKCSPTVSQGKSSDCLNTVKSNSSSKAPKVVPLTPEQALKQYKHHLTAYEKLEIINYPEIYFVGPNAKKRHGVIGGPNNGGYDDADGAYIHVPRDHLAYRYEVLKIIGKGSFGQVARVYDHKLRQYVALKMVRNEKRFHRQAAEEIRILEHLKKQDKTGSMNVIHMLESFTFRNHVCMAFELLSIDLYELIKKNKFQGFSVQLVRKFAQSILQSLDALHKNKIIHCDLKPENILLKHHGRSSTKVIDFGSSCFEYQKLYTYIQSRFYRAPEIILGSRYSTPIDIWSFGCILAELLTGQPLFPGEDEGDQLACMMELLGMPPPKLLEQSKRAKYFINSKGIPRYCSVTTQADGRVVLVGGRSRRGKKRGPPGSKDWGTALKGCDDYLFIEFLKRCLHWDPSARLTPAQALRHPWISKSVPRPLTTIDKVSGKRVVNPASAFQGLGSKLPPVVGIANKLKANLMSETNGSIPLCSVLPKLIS

[19] = biological target: Mitogen-activated protein kinase 9 (Homo sapiens) (UniProt P45984); assay: Inhibition of human JNK2 at 1.82 nM by HotSpot assay relative to control
Chain of Mitogen-activated protein kinase 9 (Homo sapiens) (P45984 whole entry, looked up): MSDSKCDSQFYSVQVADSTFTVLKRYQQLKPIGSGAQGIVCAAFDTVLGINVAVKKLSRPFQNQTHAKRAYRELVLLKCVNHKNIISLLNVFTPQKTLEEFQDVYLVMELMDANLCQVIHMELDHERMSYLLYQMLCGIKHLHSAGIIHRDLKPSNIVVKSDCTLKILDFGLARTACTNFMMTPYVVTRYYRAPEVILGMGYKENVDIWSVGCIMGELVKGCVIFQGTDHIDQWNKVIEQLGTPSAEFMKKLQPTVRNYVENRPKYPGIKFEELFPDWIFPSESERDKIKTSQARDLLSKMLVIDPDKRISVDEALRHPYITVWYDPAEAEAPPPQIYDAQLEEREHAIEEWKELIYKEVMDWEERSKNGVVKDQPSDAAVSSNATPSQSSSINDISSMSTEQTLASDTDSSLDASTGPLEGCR

[20] = biological target: Cyclin-dependent kinase 5/CDK5 activator 1 (Homo sapiens) (UniProt Q00535+Q15078); assay: Inhibition of human CDK5/p25 at 1.82 nM by HotSpot assay relative to control; format: protein-complex assay
[21] = biological target: STE20/SPS1-related proline-alanine-rich protein kinase (Homo sapiens) (UniProt Q9UEW8); assay: Inhibition of human STLK3 at 1.82 nM by HotSpot assay relative to control

Chain of Mitogen-activated protein kinase 11 (Homo sapiens) (Q15759 whole entry): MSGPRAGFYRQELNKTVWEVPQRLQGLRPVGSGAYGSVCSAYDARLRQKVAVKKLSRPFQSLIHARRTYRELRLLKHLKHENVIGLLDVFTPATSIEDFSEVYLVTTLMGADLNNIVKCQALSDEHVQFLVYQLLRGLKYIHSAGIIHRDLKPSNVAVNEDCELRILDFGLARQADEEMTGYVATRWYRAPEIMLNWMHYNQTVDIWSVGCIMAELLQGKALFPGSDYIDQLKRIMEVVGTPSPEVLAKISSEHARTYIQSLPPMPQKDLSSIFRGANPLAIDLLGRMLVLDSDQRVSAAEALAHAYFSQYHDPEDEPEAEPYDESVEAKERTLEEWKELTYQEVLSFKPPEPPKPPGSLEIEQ

- inhibition [1]: -4.21%
- inhibition [2]: -4.3%
- inhibition [3]: 0.83%
- inhibition [4]: 4.82%
- inhibition [5]: 66.3%
- inhibition [6]: -8.39%
- inhibition [7]: 20.9%
- inhibition [8]: -0.1%
- inhibition [9]: 0.67%
- inhibition [10]: -4.23%
- inhibition [11]: -2.07%
- inhibition [12]: -3.04%
- inhibition [13]: 2.42%
- inhibition [14]: 6.69%
SMILES: C[C@]1(O)C[C@@H](c2nc(-c3ccc4ccc(-c5ccccc5)nc4c3)c3c(N)nccn32)C1

- inhibition [15]: 3.26%
- inhibition [16]: -3.39%
- inhibition [17]: -1.14%
- inhibition [18]: 8.06%
- inhibition [19]: -2.41%
- inhibition [20]: 2.17%
- inhibition [21]: -5.74%
SMILES: C[C@@]1(C(=O)Nc2ccc(F)nc2)CCCN1c1nc(Nc2cc(C3CC3)n[nH]2)c2cccn2n1
